# Data: patent publication EP0745595A1, “3-(3-Aryloxyphenyl)-1-(substituted methyl)-s-triazine-2,4,6-oxo or thiotrione herbicidal agents” (American Cyanamid Company, priority 1995, dated 1996)
# Key:
# Format in all cases: in vivo
# [1] = test system: GLYCINE MAX(L) MERR. CV. WILLIAMS; assay: Postemergence herbicidal evaluation, GLXMAW (Soybean, Williams); design: key to GLXMAW rating / Herbicidal effect rating, GLXMAW / GLXMAW: 0-9 visual rating scale vs untreated control
# Method in brief: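 Soybean seedlings (Williams) were raised in jiffy flats for roughly two weeks, then sprayed postemergence through a nozzle at 40 psi with test compound dispersed in 50/50 acetone/water containing 0.5% TWEEN®20. Treated plants were kept on greenhouse benches under normal care and visually rated on a 0-9 scale four to five weeks later.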
# [2] = test system: ORYZA SATIVA, L. TEBONNET; assay: Postemergence herbicidal evaluation, ORYSAT (Rice, Tebonnet); design: key: 0-9 visual rating scale vs untreated control
# Method: In the tests, seedling plants are grown in jiffy flats for about two weeks. The test compounds are dispersed in 50/50 acetone/water mixtures containing 0.5% TWEEN®20, a polyoxyethylene sorbitan monolaurate surfactant of Atlas Chemical Industries, in sufficient quantities to provide the equivalent of about 0.125 kg to 0.500 kg per hectare of active compound when applied to the plants through a spray nozzle operating at 40 psi for a predetermined time. After spraying, the plants are placed on greenhouse benches and are cared for in the usual manner, commensurate with conventional greenhouse practices. From four to five weeks after treatment, the seedling plants are examined and rated according to the rating system set forth below. Where more than one test is involved for a given compound, the data are averaged.
# Plant species employed in these evaluations are reported by header abbreviation, common name and scientific name.
# Results of herbicide evaluation are expressed on a rating scale (0-9). The scale is based upon a visual observation of plant stand, vigor, malformation, size, chlorosis and overall plant appearance as compared with a control.
# […], PRESL. = Preemergence weed control under flooded paddy conditions, MOOVA (Monochoria); conditions: for MOOVA: pre-weed; for Herbicidal effect rating, MOOVA: preemergence, 3-4 weeks after treatment
# Method in brief: (§1)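 Seeds or propagules sown in top 0.5 cm of silt loam in undrained containers, flooded 1.5 to 3 cm throughout. Compounds in aqueous/acetone 50/50 v/v pipetted into flood water at about 0.5, 0.25, 0.125 and 0.063 kg/ha. Visual 0-9 rating versus control after three to four weeks in greenhouse.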
# [3] = test system: GLYCINE MAX(L) MERR. CV. WILLIAMS; assay: Preemergence herbicidal evaluation, GLXMAW (Soybean, Williams); conditions: for GLXMAW herbicidal rating: rated four to five weeks after treatment
# Method in brief: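 First, seeds in potting soil are sown atop soil in cups. Next, the surface is sprayed with test compound in aqueous acetone at roughly 0.125 to 0.50 kg per hectare. After four to five weeks of greenhouse care, each cup is scored 0-9 against a control.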
# [4] = test system: ABUTILON THEOPHRASTI, MEDIC.; assay: Postemergence herbicidal evaluation, ABUTH (Velvetleaf); conditions: for ABUTH, herbicide rating (0-9): rated four to five weeks after treatment, averaged
# Method in brief: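 Velvetleaf (Abutilon theophrasti) seedlings were raised in jiffy flats for about two weeks and then sprayed postemergence. The test compound was dispersed in a 50/50 acetone/water mixture containing 0.5% TWEEN®20 and applied through a nozzle operating at 40 psi. Plants were kept on greenhouse benches and rated 0-9 four to five weeks after treatment.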
# ZEA MAYS L. = assay: Preemergence herbicidal evaluation, ZEAMX (Corn, Field)
# Method in brief: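 Corn (Zea mays) seeds were mixed with potting soil and planted on about one inch of soil in pint cups, then treated preemergence. Cups were kept on greenhouse benches, watered and maintained conventionally, and after four to five weeks were visually rated on a 0-9 scale versus an untreated control.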
# SAGITTARIA PYGMAEA, L. = assay: Preemergence weed control under flooded paddy conditions, SAGPY (Arrowhead (Pygmaea)); conditions: pre-weed
# Method in brief: as §1
# [5] = test system: CYPERUS SEROTINUS, ROTTB.; assay: Preemergence weed control under flooded paddy conditions, CYPSE (Flatsedge); conditions: for CYPSE: pre-weed; for CYPSE herbicidal rating: preemergence weeds, rated three to four weeks after treatment
# Method in brief: as §1
# CYPERUS IRIA = assay: Preemergence weed control under flooded paddy conditions, CYPIR (Rice Flatsedge); conditions: for Herbicidal effect rating, CYPIR: preemergence, 3-4 weeks after treatment; for CYPIR: pre-weed
# Method in brief: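 Seeds or propagating organs of rice flatsedge were planted in the top 0.5 cm of silt loam soil in 32 oz. plastic containers, 10.5 cm across and without drainage holes. Water was kept 1.5 to 3 cm above the soil throughout. Treated containers were kept on greenhouse benches, and herbicidal effect was visually rated on a 0-9 scale against a control.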
compound,measurement,setting,value
"Cn1c(=O)[nH]c(=O)n(-c2cc(Oc3c(F)cc(C(F)(F)F)cc3Cl)ccc2F)c1=O [C, reference compound]","Herbicidal effect rating, GLXMAW",[1]; 0.031 kg/ha,3.5
same,"Herbicidal effect rating, GLXMAW",[1]; 0.063 kg/ha,4.5
same,"Herbicidal effect rating, GLXMAW",[1]; 0.125 kg/ha,4.5
same,"Herbicidal effect rating, GLXMAW",[1]; 0.250 kg/ha,5.0
same,"Herbicidal effect rating, ORYSAT",[2]; 0.031 kg/ha,3.0
same,"Herbicidal effect rating, ORYSAT",[2]; 0.063 kg/ha,3.5
same,"Herbicidal effect rating, ORYSAT",[2]; 0.125 kg/ha,3.5
same,"Herbicidal effect rating, ORYSAT",[2]; 0.250 kg/ha,3.5
same,MOOVA,"[…], PRESL.; Rate 0.031 kg/ha",9.0
same,MOOVA,"[…], PRESL.; Rate 0.063 kg/ha",9.0
same,MOOVA,"[…], PRESL.; Rate 0.125 kg/ha",9.0
same,MOOVA,"[…], PRESL.; Rate 0.250 kg/ha",9.0
same,GLXMAW,[3]; Rate 0.031 kg/ha,0.0
same,GLXMAW,[3]; Rate 0.063 kg/ha,0.0
same,GLXMAW,[3]; Rate 0.125 kg/ha,0.0
same,GLXMAW,[3]; Rate 0.250 kg/ha,0.0
same,"Herbicidal effect rating, ABUTH",[4]; 0.031 kg/ha,2.0
same,"Herbicidal effect rating, ABUTH",[4]; 0.063 kg/ha,4.0
same,"Herbicidal effect rating, ABUTH",[4]; 0.125 kg/ha,7.0
same,"Herbicidal effect rating, ABUTH",[4]; 0.250 kg/ha,7.0
same,ZEAMX,ZEA MAYS L.; Rate 0.031 kg/ha,0.0
same,ZEAMX,ZEA MAYS L.; Rate 0.063 kg/ha,0.0
same,ZEAMX,ZEA MAYS L.; Rate 0.125 kg/ha,0.0
same,ZEAMX,ZEA MAYS L.; Rate 0.250 kg/ha,0.0
same,SAGPY,"SAGITTARIA PYGMAEA, L.; Rate 0.031 kg/ha",0.0
same,SAGPY,"SAGITTARIA PYGMAEA, L.; Rate 0.063 kg/ha",0.0
same,SAGPY,"SAGITTARIA PYGMAEA, L.; Rate 0.125 kg/ha",0.0
same,SAGPY,"SAGITTARIA PYGMAEA, L.; Rate 0.250 kg/ha",0.0
same,CYPSE,[5]; Rate 0.031 kg/ha,0.0
same,CYPSE,[5]; Rate 0.063 kg/ha,0.0
same,CYPSE,[5]; Rate 0.125 kg/ha,0.0
same,CYPSE,[5]; Rate 0.250 kg/ha,0.0
"COC(=O)Cn1c(=O)[nH]c(=O)n(-c2cc(Oc3ccc(C(F)(F)F)cc3Cl)ccc2[N+](=O)[O-])c1=O [Compound 8, Methyl 3-{5-[(2-chloro-α,α,α-trifluoro-p-tolyl)oxy]-2-nitrophenyl}tetrahydro-2,4,6-trioxo-s-triazine-1(2H)-acetate]","ABUTH, herbicide rating (0-9)",[4]; Rate 0.125 kg/ha,9.0
same,"ABUTH, herbicide rating (0-9)",[4]; Rate 0.250 kg/ha,9.0
same,"ABUTH, herbicide rating (0-9)",[4]; Rate 0.500 kg/ha,9.0
same,CYPSE herbicidal rating,[5]; Rate 0.063 kg/ha,0.0
same,CYPSE herbicidal rating,[5]; Rate 0.125 kg/ha,0.0
same,CYPSE herbicidal rating,[5]; Rate 0.250 kg/ha,0.0
"COC(=O)Cn1c(=O)n(C)c(=O)n(-c2cc(Oc3ccc(C(F)(F)F)cc3Cl)ccc2Cl)c1=O [Compound 39, Methyl 3-{[2-chloro-5-(2-chloro-α,α,α-trifluoro-p-tolyl)oxy]phenyl}tetrahydro-5-methyl-2,4,6-trioxo-s-triazine-1(2H)-acetate]",GLXMAW,[1]; Rate 0.016 kg/ha,3.8
same,GLXMAW,[1]; Rate 0.032 kg/ha,4.5
same,GLXMAW,[1]; Rate 0.063 kg/ha,5.3
same,GLXMAW,[1]; Rate 0.125 kg/ha,5.5
same,GLXMAW,[1]; Rate 0.250 kg/ha,6.3
same,GLXMAW,[1]; Rate 0.500 kg/ha,7.0
same,ORYSAT,[2]; Rate 0.016 kg/ha,2.3
same,ORYSAT,[2]; Rate 0.032 kg/ha,3.3
same,ORYSAT,[2]; Rate 0.063 kg/ha,4.8
same,ORYSAT,[2]; Rate 0.125 kg/ha,4.3
same,ORYSAT,[2]; Rate 0.250 kg/ha,4.8
same,ORYSAT,[2]; Rate 0.500 kg/ha,4.5
same,"Herbicidal effect rating, MOOVA","[…], PRESL.; 0.063 kg/ha",9.0
same,"Herbicidal effect rating, MOOVA","[…], PRESL.; 0.125 kg/ha",9.0
same,"Herbicidal effect rating, MOOVA","[…], PRESL.; 0.250 kg/ha",9.0
same,"Herbicidal effect rating, MOOVA","[…], PRESL.; 0.500 kg/ha",9.0
same,MOOVA,"[…], PRESL.; Rate 0.031 kg/ha",9.0
same,MOOVA,"[…], PRESL.; Rate 0.063 kg/ha",9.0
same,MOOVA,"[…], PRESL.; Rate 0.125 kg/ha",9.0
same,MOOVA,"[…], PRESL.; Rate 0.250 kg/ha",9.0
same,GLXMAW herbicidal rating,[3]; Rate 0.125 kg/ha,2.0
same,GLXMAW herbicidal rating,[3]; Rate 0.250 kg/ha,2.0
same,GLXMAW herbicidal rating,[3]; Rate 0.500 kg/ha,2.0
same,ABUTH,[4]; Rate 0.016 kg/ha,7.0
same,ABUTH,[4]; Rate 0.032 kg/ha,8.5
same,ABUTH,[4]; Rate 0.063 kg/ha,9.0
same,ABUTH,[4]; Rate 0.125 kg/ha,9.0
same,ABUTH rating,[4]; Rate 0.125 kg/ha,9.0
same,ABUTH,[4]; Rate 0.250 kg/ha,9.0
same,ABUTH rating,[4]; Rate 0.250 kg/ha,9.0
same,ABUTH,[4]; Rate 0.500 kg/ha,9.0
same,ABUTH rating,[4]; Rate 0.500 kg/ha,9.0
same,"Herbicidal effect rating, CYPIR",CYPERUS IRIA; 0.063 kg/ha,9.0
same,"Herbicidal effect rating, CYPIR",CYPERUS IRIA; 0.125 kg/ha,9.0
same,"Herbicidal effect rating, CYPIR",CYPERUS IRIA; 0.250 kg/ha,9.0
same,"Herbicidal effect rating, CYPIR",CYPERUS IRIA; 0.500 kg/ha,9.0
same,CYPIR,CYPERUS IRIA; Rate 0.031 kg/ha,9.0
same,CYPIR,CYPERUS IRIA; Rate 0.063 kg/ha,9.0
same,CYPIR,CYPERUS IRIA; Rate 0.125 kg/ha,9.0
same,CYPIR,CYPERUS IRIA; Rate 0.250 kg/ha,9.0
